Test results taken from ChEMBL document CHEMBL1201862, “PubChem BioAssay data set” (2004).
Calls of active or inactive are those of the source.

Key:
[1] = target: SUMO-activating enzyme (Homo sapiens, UniProt Q9UBT2); test: SUMOylation inhibitor hit validation, confirmation, SUMOylation inhibitor project, biochemical, AlphaScreen (AID 2018); format: functional
[2] = target: Cytochrome P450 2C9 (Homo sapiens, UniProt P11712)
[3] = target: Cytochrome P450 2C19 (Homo sapiens, UniProt P33261); test: Cytochrome panel assay with activity outcomes. Panel member name: p450-cyp2c19 Compounds with AC50 equal or less than 10 uM are considered active; format: functional
Chain of Cytochrome P450 2C19 (P33261 whole entry): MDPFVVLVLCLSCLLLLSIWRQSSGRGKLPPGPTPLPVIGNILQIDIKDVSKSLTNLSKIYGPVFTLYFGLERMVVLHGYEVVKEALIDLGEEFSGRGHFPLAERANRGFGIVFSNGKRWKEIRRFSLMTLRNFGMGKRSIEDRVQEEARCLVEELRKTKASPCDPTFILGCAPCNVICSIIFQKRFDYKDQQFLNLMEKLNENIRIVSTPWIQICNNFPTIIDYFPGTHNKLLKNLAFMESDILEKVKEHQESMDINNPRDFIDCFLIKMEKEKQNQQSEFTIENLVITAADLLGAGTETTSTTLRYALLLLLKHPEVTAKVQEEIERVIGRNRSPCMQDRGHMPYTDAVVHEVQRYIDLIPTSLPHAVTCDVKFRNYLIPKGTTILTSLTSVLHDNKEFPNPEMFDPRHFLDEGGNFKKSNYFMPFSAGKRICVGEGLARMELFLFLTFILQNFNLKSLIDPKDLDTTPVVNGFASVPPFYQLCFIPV

[4] = target: Cytochrome P450 2D6 (Homo sapiens, UniProt P10635);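 note: CYP2D6 member of a cytochrome P450 panel assay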
Chain of Cytochrome P450 2D6 (P10635 whole entry): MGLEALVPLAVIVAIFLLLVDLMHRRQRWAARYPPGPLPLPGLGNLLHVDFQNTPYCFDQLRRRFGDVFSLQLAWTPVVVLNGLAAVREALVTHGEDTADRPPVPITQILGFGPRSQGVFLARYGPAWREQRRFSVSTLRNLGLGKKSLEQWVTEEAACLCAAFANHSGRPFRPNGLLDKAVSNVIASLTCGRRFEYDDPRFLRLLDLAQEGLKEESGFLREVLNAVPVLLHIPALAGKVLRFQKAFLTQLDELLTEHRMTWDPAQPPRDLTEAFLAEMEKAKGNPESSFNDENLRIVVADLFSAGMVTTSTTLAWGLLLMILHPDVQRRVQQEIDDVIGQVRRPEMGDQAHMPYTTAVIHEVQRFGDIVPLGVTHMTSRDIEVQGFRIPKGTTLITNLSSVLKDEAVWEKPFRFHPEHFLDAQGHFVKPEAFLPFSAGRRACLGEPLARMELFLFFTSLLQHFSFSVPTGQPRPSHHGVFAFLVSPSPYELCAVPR

[5] = target: T1, Cytochrome P450 1A2 (Homo sapiens, UniProt P05177);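 note: PubChem cytochrome P450 panel assay, CYP1A2 panel member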
T1 sequence (P05177 whole entry): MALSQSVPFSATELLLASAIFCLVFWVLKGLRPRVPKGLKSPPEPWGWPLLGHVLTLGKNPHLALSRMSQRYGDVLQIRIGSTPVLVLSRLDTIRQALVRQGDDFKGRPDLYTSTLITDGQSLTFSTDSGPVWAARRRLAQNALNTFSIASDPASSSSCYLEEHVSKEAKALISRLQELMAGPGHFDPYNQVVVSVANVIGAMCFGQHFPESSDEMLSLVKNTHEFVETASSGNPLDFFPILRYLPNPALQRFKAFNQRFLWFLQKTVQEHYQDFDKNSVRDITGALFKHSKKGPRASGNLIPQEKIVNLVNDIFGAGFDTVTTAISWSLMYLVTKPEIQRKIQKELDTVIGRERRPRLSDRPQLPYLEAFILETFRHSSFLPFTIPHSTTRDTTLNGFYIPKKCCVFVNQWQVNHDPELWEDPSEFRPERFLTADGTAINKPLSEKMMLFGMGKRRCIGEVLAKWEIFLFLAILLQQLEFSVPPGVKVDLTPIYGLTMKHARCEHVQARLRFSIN

[6] = tested on: BJ; test: cytotoxicity toward BJ-TERT fibroblasts, dose response, cell-based, RAS-independent, luminescence (AID 1933); format: functional; settings: Homo sapiens
[7] = tested on: BJ; test: cells; format: functional, cell-based; settings: Homo sapiens
[8] = cytotoxicity toward DRD oncogenic fibroblasts, dose response, cell-based, non-viral oncogenic, luminescence (AID 1934); format: functional; settings: Homo sapiens
[9] = cytotoxicity in HEK-293T cells, dose response, cytotoxicity control for TCR NF-kB inhibitor project, luminescence, T-cell screen hits (AID 489026); format: functional, cell-based;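 note: cells exposed to compound about 14 hours before the viability readout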
[10] = target: T2, DNA repair and recombination protein RAD54-like (Homo sapiens, UniProt Q92698); test: inhibitors of human RAD54 branch migration, confirmation, biochemical, fluorescence, cherry-picked samples, dose series (AID 651657); format: functional
T2 sequence (Q92698 whole entry): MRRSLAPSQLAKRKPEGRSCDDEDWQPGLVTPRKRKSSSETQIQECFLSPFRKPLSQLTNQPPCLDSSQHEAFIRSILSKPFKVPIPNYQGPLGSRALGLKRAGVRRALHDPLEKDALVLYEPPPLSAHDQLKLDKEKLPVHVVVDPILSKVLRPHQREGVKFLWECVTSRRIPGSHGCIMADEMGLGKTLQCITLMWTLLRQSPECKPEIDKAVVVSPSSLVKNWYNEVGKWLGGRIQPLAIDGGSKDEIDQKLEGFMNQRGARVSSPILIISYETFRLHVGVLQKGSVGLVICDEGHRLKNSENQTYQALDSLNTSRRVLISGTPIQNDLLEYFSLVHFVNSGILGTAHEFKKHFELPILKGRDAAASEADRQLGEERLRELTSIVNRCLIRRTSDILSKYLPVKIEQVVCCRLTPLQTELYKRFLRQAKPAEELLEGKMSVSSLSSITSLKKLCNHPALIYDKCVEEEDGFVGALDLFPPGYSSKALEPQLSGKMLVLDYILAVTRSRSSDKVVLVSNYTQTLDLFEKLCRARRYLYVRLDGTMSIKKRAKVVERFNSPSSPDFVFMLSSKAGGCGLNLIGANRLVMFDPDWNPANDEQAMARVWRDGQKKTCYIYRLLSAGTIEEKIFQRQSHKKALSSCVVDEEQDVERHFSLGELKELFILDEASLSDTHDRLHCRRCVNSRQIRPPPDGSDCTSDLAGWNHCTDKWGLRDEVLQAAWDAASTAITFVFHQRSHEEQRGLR

[11] = Luminescence Cell-Based Dose Response HTS to Identify Activators of Luciferase Translation or Activity in H4 […] Cells. [Related pubchem assays: 1829 (Project Summary), 1814 (Primary HTS)]; format: functional
[12] = tested on: H4; test: Luminescence Cell-Based Dose Response HTS to Identify Activators of 5'UTR Stem-Loop Driven Prion Protein mRNA Translation in H4 Neuroglioblastoma Cells. [Related pubchem assays: 1829 (Project Summary), 1814 (Primary HTS)]; format: functional; settings: Homo sapiens
[13] = Luminescence Cell-Based Dose Confirmation HTS to Identify Activators of 5'UTR Stem-Loop Driven Alpha-Synuclein mRNA Translation in H4 Neuroglioblastoma Cells. [Related pubchem assays: 1829 (Project Summary), 1814 (Primary HTS)]; format: functional
[14] = target: Dual specificity tyrosine-phosphorylation-regulated kinase 1A (Rattus norvegicus, UniProt Q63470); format: biochemical, Homo sapiens
[15] = tested on: Vero; test: cells; format: functional; settings: Chlorocebus sabaeus
[16] = target: T3, Replicative DNA helicase DnaB (Mycobacterium tuberculosis, UniProt P9WMR3); test: DnaB intein splicing inhibitors, dose response, biochemical, cell-free fluorescence (AID 449749); format: functional
T3 sequence (P9WMR3 whole entry): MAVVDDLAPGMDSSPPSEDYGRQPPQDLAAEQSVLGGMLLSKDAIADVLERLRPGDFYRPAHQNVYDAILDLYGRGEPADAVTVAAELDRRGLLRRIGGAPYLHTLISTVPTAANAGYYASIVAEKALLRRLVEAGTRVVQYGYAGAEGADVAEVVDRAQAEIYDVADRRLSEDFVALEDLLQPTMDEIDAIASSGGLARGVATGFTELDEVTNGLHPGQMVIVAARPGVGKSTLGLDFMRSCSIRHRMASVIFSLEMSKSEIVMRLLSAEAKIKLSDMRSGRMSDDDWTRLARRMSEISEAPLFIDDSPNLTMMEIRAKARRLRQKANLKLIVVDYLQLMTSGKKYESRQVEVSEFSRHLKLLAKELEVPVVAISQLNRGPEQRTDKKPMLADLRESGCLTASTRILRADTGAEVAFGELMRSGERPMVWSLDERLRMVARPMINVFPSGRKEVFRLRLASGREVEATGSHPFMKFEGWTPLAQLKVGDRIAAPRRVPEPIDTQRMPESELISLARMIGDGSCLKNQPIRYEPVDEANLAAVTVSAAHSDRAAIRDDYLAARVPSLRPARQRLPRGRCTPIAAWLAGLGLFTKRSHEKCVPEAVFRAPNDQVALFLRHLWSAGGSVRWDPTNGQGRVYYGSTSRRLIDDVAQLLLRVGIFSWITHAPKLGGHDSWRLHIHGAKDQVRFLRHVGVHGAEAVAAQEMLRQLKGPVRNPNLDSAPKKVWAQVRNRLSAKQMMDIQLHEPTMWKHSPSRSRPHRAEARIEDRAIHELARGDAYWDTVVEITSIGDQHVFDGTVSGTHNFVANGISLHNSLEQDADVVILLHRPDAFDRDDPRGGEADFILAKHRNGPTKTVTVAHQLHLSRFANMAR

[17] = tested on: Streptococcus; test: Group A Streptococcus viability loss, dose response, counter-screen for streptokinase expression inhibitor project, luminescence, BacTiterGlo (AID 1915); format: functional, organism-based;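 note: potency for reduction of bacterial viability or growth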
[18] = tested on: Streptococcus sp. 'group A'; test: growth inhibition of control SK(-) GAS strain, dose response, counter-screen for streptokinase expression inhibitor project, luminescence, kanamycin, BacTiterGlo, confirmation (AID 1900); format: functional, organism-based
[19] = target: Nonstructural protein 1 (Influenza A virus, UniProt Q194T2); format: functional, Influenza A virus (A/California/07/2009(H1N1))
Chain of Nonstructural protein 1 (Q194T2 whole entry): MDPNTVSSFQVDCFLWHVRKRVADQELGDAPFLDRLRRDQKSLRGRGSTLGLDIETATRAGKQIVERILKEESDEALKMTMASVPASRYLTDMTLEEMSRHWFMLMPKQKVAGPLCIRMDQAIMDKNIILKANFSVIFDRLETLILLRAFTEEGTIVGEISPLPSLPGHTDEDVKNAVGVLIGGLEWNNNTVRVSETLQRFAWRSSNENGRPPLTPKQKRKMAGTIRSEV

[20] = target: T4, Protein RecA (Mycobacterium tuberculosis, UniProt P9WHJ3); test: Fluorescence Cell-Free Homogeneous Dose Retest to Identify Inhibitors of RecA-Intein Splicing Activity. [Related pubchem assays (depositor defined):AID2097, AID2223, AID489010, AID492950]; format: functional
T4 sequence (P9WHJ3 whole entry): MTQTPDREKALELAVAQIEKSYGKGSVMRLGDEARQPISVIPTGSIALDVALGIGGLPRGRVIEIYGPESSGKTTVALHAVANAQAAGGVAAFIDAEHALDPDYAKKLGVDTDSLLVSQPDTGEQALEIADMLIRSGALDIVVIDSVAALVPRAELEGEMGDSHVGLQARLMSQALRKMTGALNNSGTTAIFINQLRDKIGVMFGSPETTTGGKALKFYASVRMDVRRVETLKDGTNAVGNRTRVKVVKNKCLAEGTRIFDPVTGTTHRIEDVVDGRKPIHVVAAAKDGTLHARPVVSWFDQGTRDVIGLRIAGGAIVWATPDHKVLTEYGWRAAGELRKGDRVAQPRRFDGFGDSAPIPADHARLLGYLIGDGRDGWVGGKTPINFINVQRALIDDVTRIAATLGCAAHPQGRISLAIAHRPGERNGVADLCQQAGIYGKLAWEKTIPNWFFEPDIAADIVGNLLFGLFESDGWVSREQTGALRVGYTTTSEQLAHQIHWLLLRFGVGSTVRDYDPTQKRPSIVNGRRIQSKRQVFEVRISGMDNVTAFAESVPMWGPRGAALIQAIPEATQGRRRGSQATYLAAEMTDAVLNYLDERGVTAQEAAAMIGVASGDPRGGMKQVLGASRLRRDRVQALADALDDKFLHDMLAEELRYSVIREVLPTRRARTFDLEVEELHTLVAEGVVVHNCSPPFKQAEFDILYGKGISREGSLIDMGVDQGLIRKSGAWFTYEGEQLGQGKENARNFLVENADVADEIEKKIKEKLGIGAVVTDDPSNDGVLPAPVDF

Chain of SUMO-activating enzyme (Q9UBE0 whole entry): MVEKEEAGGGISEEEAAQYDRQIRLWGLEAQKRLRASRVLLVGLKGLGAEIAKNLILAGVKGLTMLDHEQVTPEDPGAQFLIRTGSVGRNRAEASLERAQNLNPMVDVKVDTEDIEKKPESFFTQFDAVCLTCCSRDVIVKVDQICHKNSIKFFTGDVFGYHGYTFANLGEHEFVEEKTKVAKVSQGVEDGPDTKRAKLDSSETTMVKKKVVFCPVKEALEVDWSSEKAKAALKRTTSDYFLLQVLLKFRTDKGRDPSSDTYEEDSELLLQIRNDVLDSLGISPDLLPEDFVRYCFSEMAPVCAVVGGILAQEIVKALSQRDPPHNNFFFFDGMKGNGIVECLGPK
Chain of SUMO-activating enzyme (Q9UBT2 whole entry): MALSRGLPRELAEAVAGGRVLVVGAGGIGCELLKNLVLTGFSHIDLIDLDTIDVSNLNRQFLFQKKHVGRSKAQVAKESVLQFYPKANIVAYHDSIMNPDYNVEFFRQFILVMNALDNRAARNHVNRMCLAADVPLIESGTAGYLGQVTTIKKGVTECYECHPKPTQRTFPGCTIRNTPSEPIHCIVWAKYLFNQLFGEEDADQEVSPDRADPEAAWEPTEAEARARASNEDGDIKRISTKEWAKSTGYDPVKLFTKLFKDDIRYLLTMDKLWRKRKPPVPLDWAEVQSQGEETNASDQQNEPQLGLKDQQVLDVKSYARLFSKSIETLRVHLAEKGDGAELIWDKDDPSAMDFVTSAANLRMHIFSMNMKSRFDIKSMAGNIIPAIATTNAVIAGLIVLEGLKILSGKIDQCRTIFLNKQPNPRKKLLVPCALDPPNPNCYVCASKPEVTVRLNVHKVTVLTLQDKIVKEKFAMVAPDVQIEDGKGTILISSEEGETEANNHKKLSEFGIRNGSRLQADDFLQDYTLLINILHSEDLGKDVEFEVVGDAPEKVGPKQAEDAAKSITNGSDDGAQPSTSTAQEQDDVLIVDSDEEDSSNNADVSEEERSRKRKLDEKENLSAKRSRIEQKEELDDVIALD
Chain of Cytochrome P450 2C9 (P11712 whole entry): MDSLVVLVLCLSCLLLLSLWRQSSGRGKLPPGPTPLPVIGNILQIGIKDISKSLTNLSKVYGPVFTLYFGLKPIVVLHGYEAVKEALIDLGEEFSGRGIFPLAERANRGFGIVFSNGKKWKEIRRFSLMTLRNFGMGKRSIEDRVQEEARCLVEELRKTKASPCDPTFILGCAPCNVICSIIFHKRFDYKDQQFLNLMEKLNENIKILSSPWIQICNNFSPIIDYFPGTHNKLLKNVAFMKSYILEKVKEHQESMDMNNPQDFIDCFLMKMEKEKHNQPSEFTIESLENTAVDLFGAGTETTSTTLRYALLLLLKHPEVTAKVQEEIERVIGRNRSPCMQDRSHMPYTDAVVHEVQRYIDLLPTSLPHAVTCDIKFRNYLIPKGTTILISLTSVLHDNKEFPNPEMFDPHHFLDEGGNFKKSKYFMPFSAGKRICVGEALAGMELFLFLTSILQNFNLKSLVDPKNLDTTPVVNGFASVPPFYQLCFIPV

Cc1nn(-c2ccccc2)c2sc(C(=O)NNC(=O)COc3ccccc3)cc12
IC50 [1]: 33.6 µM (active)

CC(C)(C)c1ccc(OC(=O)Cn2c(C(F)(F)F)nc3ccccc32)cc1
AC50 [2]: 891 nM (inconclusive)
AC50 [3]: inconclusive
AC50 [4]: inconclusive

CN(C)c1ncnc2c1ncn2CCn1cnc2c(N(C)C)ncnc21
AC50 [4]: inconclusive
AC50 [5]: 6.31 µM (inconclusive)

COc1cc(-c2noc(C)c2-c2ccc(N(C)C)nc2)cc(OC)c1OC
EC50 [6]: 174 nM (active)
EC50 [7]: 15.7 µM (inconclusive)
EC50 [8]: 4.06 µM (inconclusive)
IC50 [9]: > 80 µM (inactive)

CCNCCNC(=O)c1c(O)c2cccc3c2n(c1=O)CCC3
AC50 [10]: 86.3 µM (active)

CCc1ccc2nc(NC(=O)C3CSC4(C)CCC(=O)N34)sc2c1 (stereo not drawn)
EC50 [11]: 19.6 µM (active)
EC50 [12]: 6.99 µM (active)
EC50 [13]: > 120 µM (not active)
AC50 [14]: 7.62 µM (active)

CN(C)CCNC(=O)c1cc2c(=O)n(C)c3ccccc3c2n1C
AC50 [10]: 16.2 µM (active)

O=C(O)c1cc2ccccc2c(S(=O)(=O)O)c1O
AC50 [4]: inconclusive

Cc1ccc(C(=O)Nc2sc3c(c2C(=O)NCc2ccco2)CCCC3)cc1
IC50 [1]: 29.9 µM (active)

CC1CCC(C(C)C)C2=C1C(C#N)(C#N)C(C#N)(C#N)C(c1ccccc1)N2 (stereo not drawn)
CC50 [15]: 16.7 µM (active)
AC50 [14]: 5.69 µM (active)

COc1cc2cc(c1Cl)N(C)C(=O)C[C@H](OC(=O)C(C)C)[C@]1(C)O[C@@H]1[C@@H](C)[C@H]1C[C@](O)(NC(=O)O1)[C@@H](OC)/C=C\C=C(\C)C2
AC50 [3]: inconclusive
AC50 [4]: inconclusive

O=C(NC(=S)NNC(=O)c1ccccc1O)c1ccco1
AC50 [16]: 95.2 µM (active)
EC50 [17]: 7.67 µM (active)
EC50 [18]: 3.27 µM (active)
IC50 [19]: 8.7 µM (active)
EC50 [20]: 114 µM (inconclusive)

O=c1c(O[C@@H]2O[C@H](CO)C(O)C2O)c(-c2ccc(O)c(O)c2)oc2cc(O)cc(O)c12 (stereo partly drawn)
AC50 [14]: 18 µM (active)

O=C(N/N=C\c1cn[nH]c1-c1ccc(Cl)cc1)c1cccs1
IC50 [1]: > 100 µM (inactive)

COc1ccc(/C=N/N(C(C)=O)c2nc(-c3ccc(C)cc3)cs2)cc1
AC50 [2]: 3160 nM (inconclusive)
AC50 ([3]; read-out: AC50): 447 nM (inconclusive)
AC50 [4]: inconclusive

O=C(Nc1ccc2ccccc2n1)c1ccccc1
AC50 [14]: 77.5 µM (active)
